In paper PMC10480161, “Identification of potent and selective N-myristoyltransferase inhibitors of Plasmodium vivax liver stage hypnozoites and schizonts” (Nature Communications, 2023):
pIC50: −log10 of the molar value. Several values for one entry are separate records, joined by “and”; a condition that tells them apart may be missing. Equal values may be shown once.

Experiments:
[1] = HepG2 cytotoxicity assay (Live/Dead staining); settings: human, HepG2 cells
Method: (§1) Therefore, we assessed cytotoxicity in the human hepatoma HepG2 cell line. We required a PvNMT to HsNMT SI > 20 for further screening. HepG2 cells were exposed to the compounds at concentrations ranging from 1 to 20 µM for […], and toxicity was assessed via live-dead staining.
(§2) The viability of the HepG2 cell line following exposure to the compounds was determined by a Live/Dead cell assay kit (Invitrogen). Briefly, cells were added to a 96-well plate at a concentration of 5000 cells per well, excluding the exterior wells. Cells were exposed to the compounds at different concentrations ranging from 1 to 20 µM. Cells were washed every 24 h and supplemented with fresh doses of compounds. At 72 h post-treatment, 1 µM calcein-AM and 1 µM ethidium homodimer were added to the wells and incubated for 10 min at 37 °C. After washing with PBS, the cells were visualized with fluorescent microscopy (Keyence BZ-X700).

HepG2 cells = test: HepG2 cytotoxicity assay (Live/Dead staining); settings: replicates
Method: as §1, §2

P. falciparum NF54 = test: P. falciparum blood stage assay (SYBR Green); assay type: cell-based, Plasmodium falciparum; settings: 72 h; for P. falciparum blood-stage development (parasite DNA level fluorescence): untreated = 129; for pIC50: Plasmodium falciparum, NF54, ring-stage parasites, relative IC50
Method: To assess whether any of the PvNMTis developed here could qualify as TCP-1 candidates, we assessed the effect of each compound on blood-stage P. falciparum parasites, as there is currently no well-established in vitro platform for screening P. vivax blood-stage parasites. Synchronized P. falciparum NF54 ring-stage parasites were treated for 72 h with each compound at various concentrations, ranging from 0.625 µM to 10 µM, and parasite DNA replication was measured using a fluorescent DNA binding dye (SYBR Green).
Sorbitol-synchronized P. falciparum NF54 ring-stage parasites were cultured at a parasitemia of 0.5% and hematocrit of 1.5% in a 96-well microtiter plate. Parasites were treated with each NMT inhibitor compound at 0.625, 1.25, 2.5, 5, or 10 µM for 72 h. Direct lysis of the blood cells to release the parasite DNA was performed by adding 100 μl of LBS buffer containing SYBR green I DNA binding dye to each well. […] ICEstimator regression analysis (http://www.antimalarial-icestimator.net/) was used to obtain relative IC50 values for each compound.

| SMILES | IC50 at 48 h [1] | Percentage of live HepG2 cells compared with diluent controls (HepG2 cells; 1 μM) | Percentage of live HepG2 cells compared with diluent controls (HepG2 cells; 2.5 μM) | Percentage of live HepG2 cells compared with diluent controls (HepG2 cells; 5 μM) | Percentage of live HepG2 cells compared with diluent controls (HepG2 cells; 10 μM) | Percentage of live HepG2 cells compared with diluent controls (HepG2 cells; 20 μM) | P. falciparum blood-stage development (parasite DNA level fluorescence) (P. falciparum NF54; 0.625 uM) | P. falciparum blood-stage development (parasite DNA level fluorescence) (P. falciparum NF54; 1.25 uM) | P. falciparum blood-stage development (parasite DNA level fluorescence) (P. falciparum NF54; 2.5 uM) | P. falciparum blood-stage development (parasite DNA level fluorescence) (P. falciparum NF54; 5 uM) | P. falciparum blood-stage development (parasite DNA level fluorescence) (P. falciparum NF54; 10 uM) | pIC50 (P. falciparum NF54) |
| --- | --- | --- | --- | --- | --- | --- | --- | --- | --- | --- | --- | --- |
| Cc1nn(C)c(C)c1CCOc1cccnc1-c1ccnc(N2CCNCC2)c1 [Compound 12a] | > 20000 nM | 103.266% and 104.098% | 103.396% and 103.37% | 103.812% and 94.3274% | 93.0541% and 92.1966% | 80.685% and 80.1653% | 128.4 | 125.3 | 116.9 | 107.7 | 96.27 | 6.09 |
| Cc1nn(C)c(C)c1CCOc1cccnc1-c1cccc(N2CCNCC2)c1 [Compound 12b] | > 20000 nM | 108.074% and 106.671% | 106.359% and 104.514% | 106.385% and 94.2234% | 92.0406% and 101.317% | 83.7772% and 84.1151% | 118 | 125.4 | 119.5 | 108.7 | 105.8 | 6.33 |
| Cc1nn(C)c(C)c1CCOc1ccccc1-c1cccc(N2CCNCC2)c1 [Compound 12d] | > 20000 nM | 110.153% and 106.021% | 105.943% and 99.4465% | 100.018% and 98.1213% | 93.0281% and 104.514% | 84.6088% and 84.0111% | 123.5 | 124.2 | 118.5 | 101.9 | 92.65 | 6.10 |
| Cc1nn(C)c(C)c1CCOc1cc(F)ccc1-c1cccc(N2CCNCC2)c1 [Compound 12f] | > 20000 nM | 101.889% and 101.421% | 101.941% and 101.11% | 95.3928% and 101.733% | 95.3148% and 109.373% | 87.3113% and 87.6751% | 118.6 | 121.1 | 112.3 | 99.32 | 89.25 | 6.21 |
| c1cncc(CCOc2cccnc2-c2cccc(N3CCNCC3)c2)c1 [Compound 12g] | > 20000 nM | 99.9402% and 99.6024% | 99.7323% and 98.2512% | 98.4851% and 90.6374% | 86.6876% and 91.5989% | 78.4502% and 78.1644% | 115 | 117.7 | 114.7 | 99.89 | 87.22 | 6.22 |
